Test results reported in article PMC6874179, “Development of Macrocycle Kinase Inhibitors for ALK2 Using Fibrodysplasia Ossificans Progressiva‐Derived Endothelial Cells” (JBMR Plus, 2019).

What was measured:
EGFR = target: T1, EGFR (Homo sapiens, UniProt P00533); experiment: Proqinase Kinase profiling; format: biochemical; conditions: read-out: % inhibition at 100nM
T1 construct: purchased DiscoverX

FGFR2 = target: T2, FGFR2 (Homo sapiens, UniProt P21802); experiment: Proqinase Kinase profiling; format: biochemical; conditions: read-out: % inhibition at 100nM
T2 construct: purchased DiscoverX

RET_M918T = target: T3, RET_M918T (Homo sapiens, UniProt P07949, M918T); experiment: Proqinase Kinase profiling; format: biochemical; conditions: read-out: % inhibition at 100nM
T3 construct: purchased DiscoverX

KIT_V559D = target: T4, KIT_V559D (Homo sapiens, UniProt P10721, V559D); experiment: Proqinase Kinase profiling; format: biochemical; conditions: read-out: % inhibition at 100nM
T4 construct: purchased DiscoverX

[1] = tested on: BMP-6-induced BRE-LUC reporter activity; experiment: BMP BRE-LUC reporter assay in KS483 cells; format: cell-based, mouse; conditions: BMP-6 50 ng/mL 16 hours
Protocol: Compounds were added for 16 hours at 0.5μM before luciferase activity was measured.
(§1) For luciferase reporter assays, cells were seeded in 24-well plates and transfected with DharmaFECT Duo (Fisher Scientific, Landsmeer, The Netherlands), following the recommendations of the manufacturer. 48 hours after transfection the cells were harvested and lysed. […] Each transfection mixture was equalized with empty vector when necessary and every experiment was performed in triplicate.

ABL1_Q252H = target: T5, ABL1_Q252H (Homo sapiens, UniProt P00519, Q252H); experiment: Proqinase Kinase profiling; format: biochemical; conditions: read-out: % inhibition at 100nM
T5 construct: purchased DiscoverX

TEC = target: T6, TEC (Homo sapiens, UniProt P42680); experiment: Proqinase Kinase profiling; format: biochemical; conditions: read-out: % inhibition at 100nM
T6 construct: purchased DiscoverX

EPHA2 = target: T7, EPHA2 (Homo sapiens, UniProt P29317); experiment: Proqinase Kinase profiling; format: biochemical; conditions: read-out: % inhibition at 100nM
T7 construct: purchased DiscoverX

AXL = target: T8, AXL (Homo sapiens, UniProt P30530); experiment: Proqinase Kinase profiling; format: biochemical; conditions: read-out: % inhibition at 100nM
T8 construct: purchased DiscoverX

CDK6_cyclinD1 = target: T9, CDK6_cyclinD1 (Homo sapiens, UniProt Q00534); experiment: Proqinase Kinase profiling; format: biochemical; conditions: read-out: % inhibition at 100nM
T9 construct: purchased DiscoverX

WT ALK2 receptor = target: T10, WT ALK2 receptor (Homo sapiens, UniProt Q04771); experiment: BRE-LUC reporter assay in C2C12 cells cotransfected with WT ALK2; format: cell-based; conditions: BMP-6 50 ng/mL 16 hours, 30-min preincubation, read-out: ALK2wt BMP-6 IC50
T10 construct: expressed in transfected cells; host or cells: C2C12 murine myofibroblast cells
Protocol: as §1

NTRK2 = target: T11, NTRK2 (Homo sapiens, UniProt Q16620); experiment: Proqinase Kinase profiling; format: biochemical; conditions: read-out: % inhibition at 100nM
T11 construct: purchased DiscoverX

ABL2 = target: T12, ABL2 (Homo sapiens, UniProt P42684); experiment: Proqinase Kinase profiling; format: biochemical; conditions: read-out: % inhibition at 100nM
T12 construct: purchased DiscoverX

MAPK11 = target: T13, MAPK11 (Homo sapiens, UniProt Q15759); experiment: Proqinase Kinase profiling; format: biochemical; conditions: read-out: % inhibition at 100nM
T13 construct: purchased DiscoverX

EPHB3 = target: T14, EPHB3 (Homo sapiens, UniProt P54753); experiment: Proqinase Kinase profiling; format: biochemical; conditions: read-out: % inhibition at 100nM
T14 construct: purchased DiscoverX

SRPK1 = target: T15, SRPK1 (Homo sapiens, UniProt Q96SB4); experiment: Proqinase Kinase profiling; format: biochemical; conditions: read-out: % inhibition at 100nM
T15 construct: purchased DiscoverX

TGFBR2 = target: T16, TGFBR2 (Homo sapiens, UniProt P37173); experiment: Proqinase Kinase profiling; format: biochemical; conditions: read-out: % inhibition at 100nM
T16 construct: purchased DiscoverX

TEK = target: T17, TEK (Homo sapiens, UniProt Q02763); experiment: Proqinase Kinase profiling; format: biochemical; conditions: read-out: % inhibition at 100nM
T17 construct: purchased DiscoverX

TYK2 = target: T18, TYK2 (Homo sapiens, UniProt P29597); experiment: Proqinase Kinase profiling; format: biochemical; conditions: read-out: % inhibition at 100nM
T18 construct: purchased DiscoverX

MAP2K6 = target: T19, MAP2K6 (Homo sapiens, UniProt P52564); experiment: Proqinase Kinase profiling; format: biochemical; conditions: read-out: % inhibition at 100nM
T19 construct: purchased DiscoverX

MAPKAPK5 = target: T20, MAPKAPK5 (Homo sapiens, UniProt Q8IW41); experiment: Proqinase Kinase profiling; format: biochemical; conditions: read-out: % inhibition at 100nM
T20 construct: purchased DiscoverX

MET_Y1230A = target: T21, MET_Y1230A (Homo sapiens, UniProt P08581, Y1230A); experiment: Proqinase Kinase profiling; format: biochemical; conditions: read-out: % inhibition at 100nM
T21 construct: purchased DiscoverX

CAMK2B = target: T22, CAMK2B (Homo sapiens, UniProt Q13554); experiment: Proqinase Kinase profiling; format: biochemical; conditions: read-out: % inhibition at 100nM
T22 construct: purchased DiscoverX

RET_V804L = target: T23, RET_V804L (Homo sapiens, UniProt P07949, V804L); experiment: Proqinase Kinase profiling; format: biochemical; conditions: read-out: % inhibition at 100nM
T23 construct: purchased DiscoverX

BRAF_V600E = target: T24, BRAF_V600E (Homo sapiens, UniProt P15056, V600E); experiment: Proqinase Kinase profiling; format: biochemical; conditions: read-out: % inhibition at 100nM
T24 construct: purchased DiscoverX

EGFR_G719S = target: T25, EGFR_G719S (Homo sapiens, UniProt P00533, G719S); experiment: Proqinase Kinase profiling; format: biochemical; conditions: read-out: % inhibition at 100nM
T25 construct: purchased DiscoverX

PIM1 = target: T26, PIM1 (Homo sapiens, UniProt P11309); experiment: Proqinase Kinase profiling; format: biochemical; conditions: read-out: % inhibition at 100nM
T26 construct: purchased DiscoverX

PDGFRA_D842V = target: T27, PDGFRA_D842V (Homo sapiens, UniProt P16234, D842V); experiment: Proqinase Kinase profiling; format: biochemical; conditions: read-out: % inhibition at 100nM
T27 construct: purchased DiscoverX

PRKCG = target: T28, PRKCG (Homo sapiens, UniProt P05129); experiment: Proqinase Kinase profiling; format: biochemical; conditions: read-out: % inhibition at 100nM
T28 construct: purchased DiscoverX

EGFR_T790M = target: T29, EGFR_T790M (Homo sapiens, UniProt P00533, T790M); experiment: Proqinase Kinase profiling; format: biochemical; conditions: read-out: % inhibition at 100nM
T29 construct: purchased DiscoverX

MYLK = target: T30, MYLK (Homo sapiens, UniProt Q15746); experiment: Proqinase Kinase profiling; format: biochemical; conditions: read-out: % inhibition at 100nM
T30 construct: purchased DiscoverX

PRKCD = target: T31, PRKCD (Homo sapiens, UniProt Q05655); experiment: Proqinase Kinase profiling; format: biochemical; conditions: read-out: % inhibition at 100nM
T31 construct: purchased DiscoverX

PRKCE = target: T32, PRKCE (Homo sapiens, UniProt Q02156); experiment: Proqinase Kinase profiling; format: biochemical; conditions: read-out: % inhibition at 100nM
T32 construct: purchased DiscoverX

PIM3 = target: T33, PIM3 (Homo sapiens, UniProt Q86V86); experiment: Proqinase Kinase profiling; format: biochemical; conditions: read-out: % inhibition at 100nM
T33 construct: purchased DiscoverX

PAK1 = target: T34, PAK1 (Homo sapiens, UniProt Q13153); experiment: Proqinase Kinase profiling; format: biochemical; conditions: read-out: % inhibition at 100nM
T34 construct: purchased DiscoverX

ACVR1 = target: T35, ACVR1 (Homo sapiens, UniProt Q04771); experiment: Proqinase Kinase profiling; format: biochemical; conditions: read-out: % inhibition at 100nM
T35 construct: purchased DiscoverX

CSNK1A1 = target: T36, CSNK1A1 (Homo sapiens, UniProt P48729); experiment: Proqinase Kinase profiling; format: biochemical; conditions: read-out: % inhibition at 100nM
T36 construct: purchased DiscoverX

AURKB = target: T37, AURKB (Homo sapiens, UniProt Q96GD4); experiment: Proqinase Kinase profiling; format: biochemical; conditions: read-out: % inhibition at 100nM
T37 construct: purchased DiscoverX

GRK4 = target: T38, GRK4 (Homo sapiens, UniProt P32298); experiment: Proqinase Kinase profiling; format: biochemical; conditions: read-out: % inhibition at 100nM
T38 construct: purchased DiscoverX

T37 sequence (Q96GD4 whole entry): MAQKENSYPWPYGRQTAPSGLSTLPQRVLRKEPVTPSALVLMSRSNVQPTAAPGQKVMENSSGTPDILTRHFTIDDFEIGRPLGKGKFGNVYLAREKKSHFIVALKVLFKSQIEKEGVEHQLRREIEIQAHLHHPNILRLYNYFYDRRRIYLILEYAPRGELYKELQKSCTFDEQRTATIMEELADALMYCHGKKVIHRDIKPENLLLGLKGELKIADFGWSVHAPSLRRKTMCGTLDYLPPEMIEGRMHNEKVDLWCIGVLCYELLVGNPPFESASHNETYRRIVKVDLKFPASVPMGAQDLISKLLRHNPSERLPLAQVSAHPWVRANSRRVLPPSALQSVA
T15 sequence (Q96SB4 whole entry): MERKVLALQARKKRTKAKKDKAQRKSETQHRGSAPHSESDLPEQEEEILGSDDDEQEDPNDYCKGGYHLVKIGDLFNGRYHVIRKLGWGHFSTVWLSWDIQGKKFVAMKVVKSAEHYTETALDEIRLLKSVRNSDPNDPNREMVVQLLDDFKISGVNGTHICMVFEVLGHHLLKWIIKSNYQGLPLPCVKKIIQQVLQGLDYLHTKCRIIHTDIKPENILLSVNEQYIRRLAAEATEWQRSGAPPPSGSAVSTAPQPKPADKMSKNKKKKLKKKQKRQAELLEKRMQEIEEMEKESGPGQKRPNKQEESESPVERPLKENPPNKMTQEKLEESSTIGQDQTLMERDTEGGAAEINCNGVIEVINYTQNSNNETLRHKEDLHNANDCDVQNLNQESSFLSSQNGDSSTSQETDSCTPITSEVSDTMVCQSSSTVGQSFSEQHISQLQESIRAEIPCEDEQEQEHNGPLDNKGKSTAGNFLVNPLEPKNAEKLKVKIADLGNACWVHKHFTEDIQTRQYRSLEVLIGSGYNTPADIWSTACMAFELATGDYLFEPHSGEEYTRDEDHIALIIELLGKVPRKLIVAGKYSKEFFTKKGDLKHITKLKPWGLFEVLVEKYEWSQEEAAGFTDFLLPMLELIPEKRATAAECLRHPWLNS
T2 sequence (P21802 22-821): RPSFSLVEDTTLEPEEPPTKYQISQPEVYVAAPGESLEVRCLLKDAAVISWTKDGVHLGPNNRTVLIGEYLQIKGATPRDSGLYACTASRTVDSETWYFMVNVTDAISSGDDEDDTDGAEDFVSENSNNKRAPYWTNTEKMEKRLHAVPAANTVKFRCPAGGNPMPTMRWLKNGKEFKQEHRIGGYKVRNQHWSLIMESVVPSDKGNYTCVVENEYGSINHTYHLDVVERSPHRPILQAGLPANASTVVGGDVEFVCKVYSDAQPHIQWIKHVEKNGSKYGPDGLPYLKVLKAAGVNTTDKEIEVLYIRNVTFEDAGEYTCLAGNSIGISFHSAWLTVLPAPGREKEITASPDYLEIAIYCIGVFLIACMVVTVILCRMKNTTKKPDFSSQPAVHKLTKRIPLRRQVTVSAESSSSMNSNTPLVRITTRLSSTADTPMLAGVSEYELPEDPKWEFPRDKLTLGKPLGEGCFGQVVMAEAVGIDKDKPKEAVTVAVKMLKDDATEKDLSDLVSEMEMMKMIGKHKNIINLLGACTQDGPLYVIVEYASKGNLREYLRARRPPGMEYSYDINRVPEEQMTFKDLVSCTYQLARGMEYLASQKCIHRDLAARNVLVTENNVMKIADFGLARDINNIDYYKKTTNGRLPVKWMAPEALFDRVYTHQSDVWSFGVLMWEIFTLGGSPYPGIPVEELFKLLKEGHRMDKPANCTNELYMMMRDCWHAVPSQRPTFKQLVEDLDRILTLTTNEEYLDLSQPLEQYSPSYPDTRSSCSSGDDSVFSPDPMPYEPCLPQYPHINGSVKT
T12 sequence (P42684 whole entry): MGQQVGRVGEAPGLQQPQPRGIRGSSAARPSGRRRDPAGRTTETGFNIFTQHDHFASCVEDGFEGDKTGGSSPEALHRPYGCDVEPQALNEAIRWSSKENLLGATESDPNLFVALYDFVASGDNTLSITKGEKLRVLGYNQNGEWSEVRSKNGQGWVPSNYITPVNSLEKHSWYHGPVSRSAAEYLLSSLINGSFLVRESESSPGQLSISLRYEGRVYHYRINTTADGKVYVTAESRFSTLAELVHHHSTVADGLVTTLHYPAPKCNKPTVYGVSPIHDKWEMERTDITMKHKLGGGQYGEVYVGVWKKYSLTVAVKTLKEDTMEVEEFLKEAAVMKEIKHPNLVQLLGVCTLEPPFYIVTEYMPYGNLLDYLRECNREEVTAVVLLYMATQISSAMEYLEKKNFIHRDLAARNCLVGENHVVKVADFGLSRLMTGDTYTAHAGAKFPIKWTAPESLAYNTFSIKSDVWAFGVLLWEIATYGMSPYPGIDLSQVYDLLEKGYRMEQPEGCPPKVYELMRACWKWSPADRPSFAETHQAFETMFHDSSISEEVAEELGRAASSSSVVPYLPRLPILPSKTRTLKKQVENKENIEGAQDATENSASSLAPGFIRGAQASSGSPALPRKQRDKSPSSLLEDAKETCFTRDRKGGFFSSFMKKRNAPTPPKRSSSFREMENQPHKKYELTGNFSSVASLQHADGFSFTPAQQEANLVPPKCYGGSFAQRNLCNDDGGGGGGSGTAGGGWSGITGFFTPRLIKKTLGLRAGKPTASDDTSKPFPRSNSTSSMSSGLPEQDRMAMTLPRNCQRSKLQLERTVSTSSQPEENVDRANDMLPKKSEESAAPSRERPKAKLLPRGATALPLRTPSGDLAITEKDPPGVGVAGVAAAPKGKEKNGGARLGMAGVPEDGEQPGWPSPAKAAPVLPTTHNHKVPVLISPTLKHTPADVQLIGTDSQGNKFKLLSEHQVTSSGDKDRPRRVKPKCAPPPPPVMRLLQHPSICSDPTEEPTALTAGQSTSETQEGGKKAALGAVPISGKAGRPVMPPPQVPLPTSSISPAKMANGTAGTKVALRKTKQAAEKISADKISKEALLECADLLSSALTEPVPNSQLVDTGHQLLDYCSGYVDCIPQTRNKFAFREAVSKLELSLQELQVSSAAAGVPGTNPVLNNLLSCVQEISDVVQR
T7 sequence (P29317 24-976): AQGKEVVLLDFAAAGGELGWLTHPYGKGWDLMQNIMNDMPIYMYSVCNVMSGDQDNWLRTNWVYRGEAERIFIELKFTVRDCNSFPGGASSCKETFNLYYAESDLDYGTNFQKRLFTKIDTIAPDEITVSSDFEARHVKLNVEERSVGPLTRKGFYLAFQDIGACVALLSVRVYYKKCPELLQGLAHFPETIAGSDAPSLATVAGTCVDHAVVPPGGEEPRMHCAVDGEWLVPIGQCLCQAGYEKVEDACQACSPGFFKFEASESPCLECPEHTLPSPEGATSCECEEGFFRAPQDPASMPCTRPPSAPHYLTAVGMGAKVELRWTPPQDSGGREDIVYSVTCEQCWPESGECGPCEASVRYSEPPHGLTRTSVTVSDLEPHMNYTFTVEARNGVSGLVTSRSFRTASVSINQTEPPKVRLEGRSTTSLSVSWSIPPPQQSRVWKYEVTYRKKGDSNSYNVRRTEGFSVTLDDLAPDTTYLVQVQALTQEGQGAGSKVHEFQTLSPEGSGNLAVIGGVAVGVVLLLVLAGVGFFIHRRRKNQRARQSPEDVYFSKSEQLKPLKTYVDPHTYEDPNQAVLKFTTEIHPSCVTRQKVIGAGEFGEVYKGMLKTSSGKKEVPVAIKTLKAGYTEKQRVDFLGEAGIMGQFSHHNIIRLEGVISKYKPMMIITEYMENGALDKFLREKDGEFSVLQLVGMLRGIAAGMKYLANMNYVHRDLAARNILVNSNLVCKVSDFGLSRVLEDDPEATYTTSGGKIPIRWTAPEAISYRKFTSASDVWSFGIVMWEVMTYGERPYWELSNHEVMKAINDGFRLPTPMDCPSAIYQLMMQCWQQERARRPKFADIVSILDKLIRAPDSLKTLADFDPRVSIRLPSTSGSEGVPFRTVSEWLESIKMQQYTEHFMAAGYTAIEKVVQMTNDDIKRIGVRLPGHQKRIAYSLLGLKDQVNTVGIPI
T27 sequence (P16234 24-1089 D842V): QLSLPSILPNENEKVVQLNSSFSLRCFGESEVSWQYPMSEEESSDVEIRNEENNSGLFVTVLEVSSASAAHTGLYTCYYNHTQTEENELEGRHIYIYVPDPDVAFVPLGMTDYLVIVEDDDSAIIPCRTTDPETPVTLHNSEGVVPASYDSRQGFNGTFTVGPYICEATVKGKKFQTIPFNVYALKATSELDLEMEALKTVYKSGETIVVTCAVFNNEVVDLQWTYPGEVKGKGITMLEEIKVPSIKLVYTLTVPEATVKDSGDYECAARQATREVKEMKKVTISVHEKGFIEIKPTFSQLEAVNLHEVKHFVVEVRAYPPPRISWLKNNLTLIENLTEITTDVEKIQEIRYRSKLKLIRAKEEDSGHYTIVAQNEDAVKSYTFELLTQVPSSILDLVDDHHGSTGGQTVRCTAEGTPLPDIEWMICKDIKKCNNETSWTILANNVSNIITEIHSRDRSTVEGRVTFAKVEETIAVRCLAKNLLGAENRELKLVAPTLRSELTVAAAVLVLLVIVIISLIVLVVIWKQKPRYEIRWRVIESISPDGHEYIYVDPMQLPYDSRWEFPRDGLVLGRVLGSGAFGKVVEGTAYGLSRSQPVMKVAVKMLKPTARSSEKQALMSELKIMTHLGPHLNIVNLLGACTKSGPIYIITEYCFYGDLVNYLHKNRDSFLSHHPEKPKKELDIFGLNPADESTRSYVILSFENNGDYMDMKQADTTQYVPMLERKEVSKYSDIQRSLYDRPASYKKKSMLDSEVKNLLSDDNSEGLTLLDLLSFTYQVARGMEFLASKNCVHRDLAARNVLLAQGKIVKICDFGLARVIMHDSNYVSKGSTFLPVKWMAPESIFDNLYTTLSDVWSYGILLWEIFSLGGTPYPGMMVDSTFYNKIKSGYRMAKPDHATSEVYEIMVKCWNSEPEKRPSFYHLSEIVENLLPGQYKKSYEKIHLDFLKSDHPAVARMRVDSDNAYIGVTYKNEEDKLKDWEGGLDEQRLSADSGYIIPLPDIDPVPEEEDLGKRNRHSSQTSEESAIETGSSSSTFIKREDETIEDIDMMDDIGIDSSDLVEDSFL

## Clc1cc2cc(c1)-c1cnn3ccc(nc13)NCCOCCO2 [OD36]
EGFR
  inhibition at 0.1 µM: 3%
FGFR2
  inhibition at 0.1 µM: 8%
RET_M918T
  inhibition at 0.1 µM: 33%
KIT_V559D
  inhibition at 0.1 µM: 15%
[1]
  Inhibition of BMP-6-stimulated BRE-LUC reporter activity: in the submicromolar range
ABL1_Q252H
  inhibition at 0.1 µM: 33%
TEC
  inhibition at 0.1 µM: 6%
EPHA2
  inhibition at 0.1 µM: 7%
AXL
  inhibition at 0.1 µM: 10%
CDK6_cyclinD1
  inhibition at 0.1 µM: -5%
WT ALK2 receptor
  IC50: 308 nM
NTRK2
  inhibition at 0.1 µM: 28%
ABL2
  inhibition at 0.1 µM: 3%
MAPK11
  inhibition at 0.1 µM: 11%
EPHB3
  inhibition at 0.1 µM: 1%
SRPK1
  inhibition at 0.1 µM: 10%
TGFBR2
  inhibition at 0.1 µM: 68%
TEK
  inhibition at 0.1 µM: 6%
TYK2
  inhibition at 0.1 µM: 14%
MAP2K6
  inhibition at 0.1 µM: 1%
MAPKAPK5
  inhibition at 0.1 µM: 12%
MET_Y1230A
  inhibition at 0.1 µM: -3%
CAMK2B
  inhibition at 0.1 µM: 32%
RET_V804L
  inhibition at 0.1 µM: -10%
BRAF_V600E
  inhibition at 0.1 µM: 10%
EGFR_G719S
  inhibition at 0.1 µM: 10%
PIM1
  inhibition at 0.1 µM: 29%
PDGFRA_D842V
  inhibition at 0.1 µM: 47%
PRKCG
  inhibition at 0.1 µM: 16%
EGFR_T790M
  inhibition at 0.1 µM: -14%
MYLK
  inhibition at 0.1 µM: 12%
PRKCD
  inhibition at 0.1 µM: 4%
PRKCE
  inhibition at 0.1 µM: -1%
PIM3
  inhibition at 0.1 µM: 25%
PAK1
  inhibition at 0.1 µM: 18%
ACVR1
  inhibition at 0.1 µM: 95%
CSNK1A1
  inhibition at 0.1 µM: -6%
AURKB
  inhibition at 0.1 µM: 16%
GRK4
  inhibition at 0.1 µM: 16%

## Cc1cc2cc(c1)-c1cnn3ccc(nc13)NCCNC(=O)CCN(C)C2 [OD52]
EGFR
  inhibition at 0.1 µM: -14%
FGFR2
  inhibition at 0.1 µM: -6%
RET_M918T
  inhibition at 0.1 µM: 33%
KIT_V559D
  inhibition at 0.1 µM: -6%
[1]
  Inhibition of BMP-6-stimulated BRE-LUC reporter activity: in the submicromolar range
ABL1_Q252H
  inhibition at 0.1 µM: 1%
TEC
  inhibition at 0.1 µM: 0%
EPHA2
  inhibition at 0.1 µM: -6%
AXL
  inhibition at 0.1 µM: 10%
CDK6_cyclinD1
  inhibition at 0.1 µM: 2%
WT ALK2 receptor
  IC50: 1570 nM
NTRK2
  inhibition at 0.1 µM: 28%
ABL2
  inhibition at 0.1 µM: -23%
MAPK11
  inhibition at 0.1 µM: -5%
EPHB3
  inhibition at 0.1 µM: -8%
SRPK1
  inhibition at 0.1 µM: -9%
TGFBR2
  inhibition at 0.1 µM: 0%
TEK
  inhibition at 0.1 µM: -7%
TYK2
  inhibition at 0.1 µM: -3%
MAP2K6
  inhibition at 0.1 µM: 6%
MAPKAPK5
  inhibition at 0.1 µM: 26%
MET_Y1230A
  inhibition at 0.1 µM: -1%
CAMK2B
  inhibition at 0.1 µM: 12%
RET_V804L
  inhibition at 0.1 µM: -8%
BRAF_V600E
  inhibition at 0.1 µM: -1%
EGFR_G719S
  inhibition at 0.1 µM: -9%
PIM1
  inhibition at 0.1 µM: -3%
PDGFRA_D842V
  inhibition at 0.1 µM: 17%
PRKCG
  inhibition at 0.1 µM: 11%
EGFR_T790M
  inhibition at 0.1 µM: -17%
MYLK
  inhibition at 0.1 µM: 11%
PRKCD
  inhibition at 0.1 µM: 2%
PRKCE
  inhibition at 0.1 µM: -7%
PIM3
  inhibition at 0.1 µM: 10%
PAK1
  inhibition at 0.1 µM: -1%
ACVR1
  inhibition at 0.1 µM: 90%
CSNK1A1
  inhibition at 0.1 µM: 1%
AURKB
  inhibition at 0.1 µM: -4%
GRK4
  inhibition at 0.1 µM: 16%
